Measured values from PMC11284790, “Targeting Myeloperoxidase Ameliorates Gouty Arthritis: A Virtual Screening Success Story” (Journal of Medicinal Chemistry, 2024).
Like-named read-outs stand apart in the source and are kept apart here.

Tests used:
IL-6 = assay: Paw tissue IL-6 level after MSU (ELISA); format: in vivo, male C57BL/6 mice; settings: intraperitoneal pretreatment (RL6 30 mg/kg), tissue collected at 6 h
Experimental: (§1) The remaining part of the homogenate was treated with a solution of protease/phosphatase inhibitors (1 mM phenylmethylsulfonyl fluoride, 10 μg/mL leupeptin, and 10 μg/mL trypsin inhibitor) and centrifuged at 10,000g (10 min at 4 °C). The obtained supernatants were subjected to 1:2 dilution in PBS and subsequently used for the assessment of IL-1β and IL-6 using murine enzyme-linked immunosorbent assay kits, specifically a sandwich ELISA technique, following manufacturer’s instructions (BioLegend, CA, USA). The protein content within the samples was determined by using the Bradford method (1976). The results were quantified and expressed in pg/mg of protein (Bio-Rad, Hercules, CA, USA).[76]

MSU-induced paw edema [1] = assay: MSU-induced paw edema, intraperitoneal treatment; format: in vivo; settings: for reduction of paw edema (time-dependent AUC) vs VEH + MSU: 30 mg/kg i.p.; for effect on paw edema over time: i.p. 30 min before MSU, mefenamic acid 30 mg/kg, RL6 3, 10, 30, RL7 0.3, 3, 30, ZINC9089086 3, 10, 30 mg/kg, 6 h
Experimental: MSU-induced edema was performed as previously described.[22] The compounds were prepared by dilution in a solution containing 0.5% Tween 80 and 5% DMSO and then resuspended in PBS prior to administration. The animals were treated intraperitoneally (i.p.) with the following substances: vehicle (VEH: 5% DMSO; 0.5% Tween 80 in PBS), mefenamic acid (a nonsteroidal anti-inflammatory drug at a dosage of 30 mg/kg), RL6 (at doses of 3, 10, and 30 mg/kg), RL7 (at doses of 0.3, 3, and 30 mg/kg), or ZINC9089086 (at doses of 3, 10, and 30 mg/kg).[31] After 30 min, the mice were anesthetized using inhaled isoflurane (2% v/v in O2). A hypodermic syringe with a 31-gauge needle (BD, Franklin Lakes, NJ, USA) was used to administer the vehicle (VEH: PBS, 30 μL) or MSU (1.5 mg/30 μL) via the intraplantar route (i.pl.), into the right hind paw (Figure 9).
(§2) Paw volume (mL) was measured at various time points, including before injection (baseline, B), […] 1, 2, 3, 4, 5, and 6 h following MSU injection using a plethysmometer (Ugo Basile, Comerio, Italy) (Figure 7). For this, the injected hind paw was immersed into the dipping solution (6 mM NaCl diluted in distilled water and added with 2 mL/L of a wetting compound provided by the manufacturer) until the ankle. The extent of edema was quantified as a change in paw volume (Δ mL) by subtracting the basal paw volume from the volume of the paw measured at each time point. To evaluate the antiedematogenic effect of orally administered MPO inhibitors (p.o.), the animals were fasted for 1 h and then treated with equimolar doses of the following substances: vehicle (VEH: 5% DMSO; 0.5% tween 80 in PBS), mefenamic acid (30 mg/kg), RL 6 (33 mg/kg), RL 7 (54 mg/kg), RL 21 (30 mg/kg), or ZINC9089086 (34 mg/kg). After 1 h, the anesthetized mice (2% isoflurane, v/v in O2) received either the vehicle (PBS, 30 μL, i.pl.) or 1.5 mg/30 μL MSU (i.pl.). The paw volume was evaluated at the same time points as previously described. The percentage of edema inhibition by the compounds was calculated discounting the paw volume of mice that received oral or intraperitoneal vehicle and PBS intraplantar (VEH + VEH).

[2] = system: total peroxidase activity; assay: Paw tissue total peroxidase activity after MSU; format: in vivo, male C57BL/6 mice; settings: intraperitoneal pretreatment (RL6 30 mg/kg), tissue collected at 6 h
Experimental: After the assessment of paw edema was completed, the mice were immediately anesthetized by inhalation of 2% isoflurane mixture in oxygen (O2). Subsequently, the surface of the hind paws was collected for the measurement of total peroxidase activity, IL-6, and IL-1β. These tissue samples were then frozen using dry ice and stored at −80 °C until further analysis. The frozen tissues were later pulverized into a fine powder using liquid nitrogen and homogenized in a phosphate buffer (100 mM, pH 7.4). For the analysis of total peroxidase activity, a portion of this homogenate was mixed with hexadecyltrimethylammonium (1% HTAB, pH 6.0), vigorously vortexed, and sonicated. The resulting mixture was then centrifuged at 10,000g for 10 min, at 4 °C, and heated at 60 °C for 2 h. The sample of each supernatant was incubated with a solution containing 50 mM phosphate buffer, 0.164 mg/mL of o-dianisidine dihydrochloride, and H2O2 (0.0005%, pH 6.0). […] Each unit represents the capacity to degrade 1 μmol of H2O2 per minute.[81]

MSU-induced paw edema [3] = assay: MSU-induced paw edema, oral treatment; format: in vivo, male C57BL/6 mice
Experimental: as §2

IL-1β = assay: Paw tissue IL-1β level after MSU (ELISA); format: in vivo, male C57BL/6 mice; settings: intraperitoneal pretreatment (RL6 30 mg/kg), tissue collected at 6 h
Experimental: as §1

dHL-60 cells = assay: Cellular production of HOCl, PMA-activated dHL-60 cells; format: cell-based, human; settings: 20 μM compound, 100 nM PMA, 1 h
Experimental: Human promyelocytic leukemic cells (HL-60) (BCRJ, RJ, Brazil) were cultivated in RPMI with fetal bovine serum (10%), penicillin (62 μg/mL), and streptomycin (100 μg/mL) at 37 °C in 5% CO2 atmosphere. HL-60 cells were differentiated to neutrophil-like (dHL-60) by DMSO (1.25%) during 4 days.[25]
(§3) Measurement of HOCl production by 1 × 10^6 dHL-60 or neutrophils was carried out in PBS (10 mM Na2HPO4, 2 mM KH2PO4, 0.5 mM MgCl2, 1 mM CaCl2, 140 mM NaCl, 5.5 mM dextrose, 100 μM diethylenetriaminepentaacetic acid, 5 mM taurine) in the presence of the compounds (20 μM in 0.3% DMSO) or 0.3% DMSO (control). Cells were activated with phorbol myristate acetate (100 nM) at 37 °C for 1 h. After incubation, cells were centrifuged at 1400 rpm for 10 min, and the supernatant was diluted threefold. Finally, 240 μL of this supernatant was added to 60 μL acetate buffer (400 mM, pH 5.4) containing NaI (100 μM) and TMB (2 mM in DMFO 10%). Taurine chloramine was quantified by TMB oxidation at 655 nm.[33] Inhibition of HOCl production was calculated as the percentage of the control (vehicle).

Human leukocyte MPO [4] = target: T1, Human leukocyte MPO (Homo sapiens, UniProt P05164); assay: MPO peroxidatic activity assay (AmplexRed oxidation); format: biochemical; design: Human leukocyte MPO (EC 1.7.1.11) was purchased from Planta Natural Products; purchased Planta Natural Products (Vienna, Austria); host or cells: human leukocytes
Experimental: MPO peroxidase activity was kinetically monitored using the artificial peroxidase substrate AmplexRed, which is oxidized to resorufin and can be detected by fluorescence.[34] Reactions were carried out in phosphate buffer (50 mM, pH 7.4), MPO (100 pM), cetyltrimethylammonium chloride (0.03%), diethylenetriaminepentaacetic acid (100 μM), AmplexRed (30 μM), and compounds (20 μM in 0.3% DMSO). The reaction was started by adding 2 μM hydrogen peroxide. The reaction product was assessed by fluorescence at λex = 530 and λem = 580 nm. The initial velocity was calculated by the slope of the linear regression in the first minutes of reaction. Inhibition is represented as a percentage of the control (vehicle).

[5] = system: human peripheral blood neutrophils; assay: Cellular production of HOCl, PMA-activated peripheral blood neutrophils; format: cell-based; settings: 20 μM compound, 100 nM PMA, 1 h
Experimental: Human neutrophils were obtained from healthy individuals as previously described.[24] The experiments were approved by the local ethics committee (CEPSH-ICB 1435/18).
as §3

Human leukocyte MPO [6] = target: T1, Human leukocyte MPO; assay: MPO chlorinating activity assay (taurine chloramine/TMB); format: biochemical; design: Human leukocyte MPO (EC 1.7.1.11) was purchased from Planta Natural Products; purchased Planta Natural Products (Vienna, Austria); host or cells: human leukocytes
Experimental: Chlorinating activity was carried out in phosphate buffer (20 mM, pH 7.4). Compounds (20 μM) were dissolved in 0.03% DMSO, MPO (10 nM), diethylenetriaminepentaacetic acid (100 μM), cetyltrimethylammonium chloride (0.03%), NaCl (140 mM), and taurine (5 mM).[31] This mixture was incubated at 37 °C for 15 min before adding 40 μM hydrogen peroxide. The reaction ran for 8 min and was then stopped by catalase (20 μg/mL). Oxidation of TMB (2 mM) (3,3,5,5-tetramethylbenzidine) by taurine chloroamine catalyzed by iodide (100 μM) was quantified at 650 nm.[33] Results were expressed as a percentage of the control (vehicle). IC50 was calculated by nonlinear regression using the Hill equation present in GraphPad Prism 5 software.

human neutrophils = assay: MSU-induced NETosis assay (sytox green fluorescence microscopy); format: cell-based; settings: 20 μM compound, MSU 250 μg/mL, 90 min
Experimental: NETosis assay was conducted on human neutrophils adhered to lysine-coated glass coverslips as previously reported.[80] After neutrophils’ adhesion, the compounds were diluted in RPMI medium (free of phenol red and fetal bovine serum) at a final concentration of 20 μM (0.15% DMSO) and added to the cells for 15 min at 37 °C in a 5% CO2 atmosphere. Then, MSU crystals (250 μg/mL), known to induce NETosis, were added. After 90 min incubation, the medium was carefully removed, paraformaldehyde was added (500 μL at 4%), and incubated at 4 °C overnight. In the following day, paraformaldehyde was removed, and cells were washed threefold with tris-HCl buffer (20 mM, pH 7.4) and kept into the same buffer at 4 °C. Tris-HCl buffer was carefully removed, and DNA was stained by adding 500 μL SYTOX Green (500 nM diluted in tris-HCl buffer). The system was kept for 30 min at room temperature, protected from light. After staining, the coverslips were mounted over the glass slides using ProLong Diamond Antifade Mountant fixation medium. Fluorescence images were acquired in an Axiovert 200 (Zeiss) fluorescence microscope with a 20x/0.4 objective and Zeiss Filter Set 09, λex = 450–490 nm, λem = above 515 nm. Images were taken by an Axiocam HR R3 camera device.

Human leukocyte MPO [7] = target: T1, Human leukocyte MPO; settings: read-out: previously reported IC50 for MPO; cited from earlier work

T1 sequence (P05164 279-745 limits assumed): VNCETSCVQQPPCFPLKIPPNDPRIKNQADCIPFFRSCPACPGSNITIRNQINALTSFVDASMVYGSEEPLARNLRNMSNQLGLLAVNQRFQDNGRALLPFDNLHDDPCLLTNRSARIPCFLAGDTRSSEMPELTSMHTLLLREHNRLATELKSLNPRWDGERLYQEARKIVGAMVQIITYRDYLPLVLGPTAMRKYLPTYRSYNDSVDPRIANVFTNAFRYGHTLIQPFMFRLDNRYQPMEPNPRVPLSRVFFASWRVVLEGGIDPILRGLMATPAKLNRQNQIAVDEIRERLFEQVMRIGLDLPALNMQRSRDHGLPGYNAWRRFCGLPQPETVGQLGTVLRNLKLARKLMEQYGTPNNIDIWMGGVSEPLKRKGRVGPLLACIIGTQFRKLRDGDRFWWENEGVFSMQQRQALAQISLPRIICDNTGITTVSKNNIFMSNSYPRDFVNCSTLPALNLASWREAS
T1 sequence (P05164 165-278 limits assumed): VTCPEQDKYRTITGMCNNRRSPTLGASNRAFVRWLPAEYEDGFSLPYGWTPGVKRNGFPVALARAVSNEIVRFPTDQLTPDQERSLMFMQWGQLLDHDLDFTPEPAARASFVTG

| Compound | effect on IL-6 levels in hind paw tissue (IL-6) | reduction of paw edema (time-dependent AUC) vs VEH + MSU (MSU-induced paw edema [1]) | effect on paw edema over time (MSU-induced paw edema [1]) | reduction in total peroxidase activity in hind paw tissue [2] | inhibition of edema vs VEH + MSU (MSU-induced paw edema [3]; 34 mg/kg po) | decrease in IL-1β levels in hind paw tissue (IL-1β) | inhibition of HOCl production in dHL-60 cells (dHL-60 cells) | inhibition at 20 µM (Human leukocyte MPO [4]; 20 μM compound, 100 pM MPO, 30 μM AmplexRed, 2 μM H2O2, pH 7.4, read-out: % Inhibition (at 20 μM) Peroxidatic) | inhibition at 20 µM (Human leukocyte MPO [4]; supplementary csv copy of Table 1, read-out: % Inhibition (Peroxidatic)) | inhibition of HOCl production in peripheral blood neutrophils [5] | IC50 (Human leukocyte MPO [6]; 10 nM MPO, 140 mM NaCl, pH 7.4) | inhibition at 20 µM (Human leukocyte MPO [6]; 20 μM compound, 10 nM MPO, 140 mM NaCl, 5 mM taurine, 40 μM H2O2, pH 7.4, read-out: % Inhibition (at 20 μM) Chlorinating) | inhibition at 20 µM (Human leukocyte MPO [6]; supplementary csv copy of Table 1, read-out: % Inhibition (Chlorinating)) | inhibition of MSU-induced NETosis (human neutrophils) | IC50 (Human leukocyte MPO [7]) | inhibition of edema vs VEH + MSU (MSU-induced paw edema [3]; 30 mg/kg, positive control of the oral experiment (Figure 8 legend: i.p.)) |
| --- | --- | --- | --- | --- | --- | --- | --- | --- | --- | --- | --- | --- | --- | --- | --- | --- |
| CCc1c(O)[nH]c2nc3ccccc3n2c1=O [ZINC9089086] | unable to decrease | 93.4% | inhibited paw edema at all of the tested doses | unable to decrease | no significant inhibition | unable to decrease |  |  |  |  |  |  |  |  |  |  |
| CCCc1cc(=O)[nH]c(=S)[nH]1 [PTU, propylthiouracil, reference compound] |  |  |  |  |  |  | most effective | 94.1 ± 26.4% | 94.1 ± 26.4% | most effective | 5.25 µM | 92.3 ± 11.6% | 92.3 ± 11.6% | strongly inhibited | 3.38 µM |  |
| Cc1cccc(Nc2ccccc2C(=O)O)c1C [mefenamic acid, reference compound] | unable to decrease | 91.1% | prevented paw edema for up to 4 h | unable to decrease |  | unable to decrease |  |  |  |  |  |  |  |  |  | 77.3% |
